Patent US20090306373A1, “4,7-DIHYDROTHIENO[2,3-B]PYRIDINE COMPOUNDS AND PHARMACEUTICAL COMPOSITIONS” (priority 2005, published 2009)

Tested on: alpha-MyHC
Assay: alpha-MyHC cytoblot in neonatal rat ventricular myocytes (NRVM)
Type: cell-based
Conditions: for Max Plateau: fitted maximum, percent fraction of low control (vehicle), in %; for EC50: concentration giving 50% of maximum response
[1] = Rattus norvegicus, Ventricular myocyte, Table 4, 72 hours

SMILES | Max Plateau (Table 2, 72 hours) | also measured
COC(=O)C1=C(CCc2ccccc2)Nc2sc(C(=O)c3ccc(Cl)c(Cl)c3)c(N)c2C1c1ccccc1F (stereo not drawn) [Compound 154] | 125.87 | –
CCC1=C(C(=O)OC)C(c2cccc(Cl)c2F)c2c(sc(C(=O)c3ccc(Cl)c(Cl)c3)c2N)N1 (stereo not drawn) [Compound 155] | 224.86 | –
CCC1=C(C(=O)OC)C(c2cccc(Cl)c2F)c2c(sc(C(=O)c3cccc([N+](=O)[O-])c3)c2N)N1 (stereo not drawn) [Compound 156] | 243.78 | –
CCC1=C(C(=O)OC2CCCCC2)C(c2ccccc2)c2c(sc(C(=O)c3ccc(Cl)c(Cl)c3)c2N)N1 (stereo not drawn) [Compound 160] | 186.95 | –
CCC1=C(C(=O)OCC(C)C)C(c2ccccc2)c2c(sc(C(=O)c3ccc(Cl)c(Cl)c3)c2N)N1 (stereo not drawn) [Compound 161] | 232.35 | –
CCC1=C(C(=O)OC)C(c2ccccc2F)c2c(sc(C(=O)c3cccc(C#N)c3)c2N)N1 (stereo not drawn) [Compound 164] | 279.90 | –
CCC1=C(C(=O)OC)C(c2ccccc2F)c2c(sc(C(=O)c3cccc(Cl)c3)c2N)N1 (stereo not drawn) [Compound 167] | 255.95 | –
CCOC(=O)C1=C(CC)Nc2sc(C(=O)c3ccc(Cl)c(Cl)c3)c(N)c2C1c1ccncc1F (stereo not drawn) [Compound 168] | 239.64 | –
CCOC(=O)C1=C(CC)Nc2sc(C(=O)c3ccc(Cl)c(Cl)c3)c(N)c2C1c1ccncc1Cl (stereo not drawn) [Compound 169] | 261.04 | –
CCC1=C(C(=O)OC)C(c2cc(F)cc(F)c2)c2c(sc(C(=O)c3ccc(F)c(F)c3)c2N)N1 (stereo not drawn) [Compound 170] | 262.16 | –
CCC1=C(C(=O)OC)C(c2cc(F)cc(F)c2)c2c(sc(C(=O)c3ccccc3)c2N)N1 (stereo not drawn) [Compound 172] | 304.08 | –
CCOC(=O)C1=C(CC)Nc2sc(C(=O)c3ccc(F)c(F)c3)c(N)c2C1c1ccncc1F (stereo not drawn) [Compound 173] | 257.43 | –
CCOC(=O)C1=C(CC)Nc2sc(C(=O)c3cccnc3)c(N)c2C1c1ccncc1F (stereo not drawn) [Compound 174, 3-amino-6-ethyl-4-(3 fluoro-pyridin-4-yl)-2-(pyridine-3-carbonyl)-4,7 dihydro-thieno[2,3-b]pyridine-5-carboxylic acid ethyl ester] | – | EC50 (Rattus norvegicus, Ventricular myocyte, Table 2, 72 hours): 21.9 nM
CCOC(=O)C1=C(C)Nc2sc(C(=O)c3cccc(Br)c3)c(N)c2C1(C)c1ccccc1 (stereo not drawn) [Compound 197] | – | EC50 (Table 4, 72 hours): 792 nM; Max Plateau (Table 4, 72 hours): 159.55 ± 10.94
CCOC(=O)C1=C(C)Nc2sc(C(=O)c3ccccc3)c(N)c2C1(C)c1ccccc1 (stereo not drawn) [Compound 206] | – | EC50 [1]: 936 nM
CC(=O)C1=C(C)Nc2sc(C(=O)c3ccc(Cl)c(Cl)c3)c(N)c2C1(C)c1cccc(F)c1 (stereo not drawn) [Compound 207, 1-[3-amino-2-(3,4 dichloro-benzoyl)-4-(3 fluoro-phenyl)-4,6-dimethyl-4,7 dihydro-thieno[2,3-b]pyridin-5-yl]-ethanone] | – | EC50 [1]: 3340 nM
CC(=O)C1=C(C)N(C)c2sc(C(=O)c3ccccc3)c(N)c2C1c1ccccc1 (stereo not drawn) [Compound 208, 1-(3-amino-2-benzoyl-6,7 dimethyl-4-phenyl-4,7 dihydro-thieno[2,3-b]pyridin-5-yl)-ethanone] | – | EC50 (Rattus norvegicus, Ventricular myocyte, Table 5, 72 hours): 3430 nM
